# Data as given in paper PMC4210175 (Journal of Chemical Information and Modeling, 2014).
# Target: T1, Mycobacterium thermoresistibile MycP1 (Mycolicibacterium thermoresistibile, UniProt G7CDQ2)
# T1 sequence (G7CDQ2 19-443): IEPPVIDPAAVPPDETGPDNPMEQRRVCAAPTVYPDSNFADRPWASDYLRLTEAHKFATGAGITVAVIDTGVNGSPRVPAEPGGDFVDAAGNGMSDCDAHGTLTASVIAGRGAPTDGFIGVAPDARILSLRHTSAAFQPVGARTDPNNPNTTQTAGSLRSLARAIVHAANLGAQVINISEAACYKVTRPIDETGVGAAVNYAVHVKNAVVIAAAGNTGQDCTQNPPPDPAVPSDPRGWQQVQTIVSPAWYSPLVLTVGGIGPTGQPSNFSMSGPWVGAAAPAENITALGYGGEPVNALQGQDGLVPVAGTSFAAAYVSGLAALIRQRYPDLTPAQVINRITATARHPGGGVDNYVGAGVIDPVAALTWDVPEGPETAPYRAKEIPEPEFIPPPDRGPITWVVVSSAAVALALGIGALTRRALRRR
# Test: In vitro quenched fluorescent peptide assay of MycP1 inhibitors
# Assay type: biochemical
# Conditions: for inhibition at 150 µM: read-out: % inhibition at 150 μM
inhibition at 150 µM [%],IC50 [µM],Structure (SMILES)
80.1,–,"CC(=O)Nc1ccc(/C=N/NC(N)=S)cc1 [compound 13, Thiacetazone]"
79.1,85.6,"N=C(N)c1ccc(/C=C/c2ccc(C(=N)N)cc2O)cc1 [compound 11, Hydroxystilbamidine]"
58,–,"N=C(N)c1ccc(/N=N/Nc2ccc(C(=N)N)cc2)cc1 [compound 12, Diminazene]"
